{"source": "paper PMC10256776", "about": "“Cryo-EM structures of ClC-2 chloride channel reveal the blocking mechanism of its specific inhibitor AK-42” (Nature Communications, 2023)", "test_in_all_cases": "whole-cell patch clamp, […] AK-42", "assay_type_in_all_cases": "cell-based", "key": {"ClC-2 [1]": {"target": "T1, ClC-2 (Homo sapiens, UniProt P51788, K394A)", "T1 construct": "gene CLCN2; human ClC-2 mutant expressed in CHO-K1 cells", "T1 sequence (P51788 2-898 K394A)": "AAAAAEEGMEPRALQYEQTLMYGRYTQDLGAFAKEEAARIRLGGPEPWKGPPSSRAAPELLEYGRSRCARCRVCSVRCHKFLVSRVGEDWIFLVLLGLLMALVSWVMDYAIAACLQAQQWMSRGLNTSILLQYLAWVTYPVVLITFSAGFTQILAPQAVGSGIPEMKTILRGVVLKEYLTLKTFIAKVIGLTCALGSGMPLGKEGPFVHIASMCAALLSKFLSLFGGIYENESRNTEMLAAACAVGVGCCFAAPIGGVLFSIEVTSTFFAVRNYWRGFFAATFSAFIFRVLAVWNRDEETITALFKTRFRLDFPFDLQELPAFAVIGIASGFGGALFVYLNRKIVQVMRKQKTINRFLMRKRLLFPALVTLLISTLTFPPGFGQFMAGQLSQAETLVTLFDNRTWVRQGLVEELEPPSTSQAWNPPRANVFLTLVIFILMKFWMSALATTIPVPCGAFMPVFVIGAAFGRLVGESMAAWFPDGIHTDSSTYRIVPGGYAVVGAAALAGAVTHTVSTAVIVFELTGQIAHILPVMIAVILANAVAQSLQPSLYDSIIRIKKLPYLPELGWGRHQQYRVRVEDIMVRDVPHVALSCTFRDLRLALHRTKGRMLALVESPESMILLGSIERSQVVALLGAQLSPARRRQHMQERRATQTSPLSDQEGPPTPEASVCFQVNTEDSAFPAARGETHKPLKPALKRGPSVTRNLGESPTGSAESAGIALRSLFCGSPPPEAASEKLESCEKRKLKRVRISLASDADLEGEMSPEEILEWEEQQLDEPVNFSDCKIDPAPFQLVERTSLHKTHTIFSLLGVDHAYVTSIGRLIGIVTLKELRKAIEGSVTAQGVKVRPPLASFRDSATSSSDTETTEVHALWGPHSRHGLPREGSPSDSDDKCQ"}, "ClC-2 [2]": {"target": "T2, ClC-2 (Homo sapiens, UniProt P51788, F459A)", "T2 construct": "gene CLCN2; human ClC-2 mutant expressed in CHO-K1 cells", "T2 sequence (P51788 2-898 F459A)": "T1 sequence (P51788 2-898 K394A) with A393K, F458A"}, "ClC-2 [3]": {"target": "T3, ClC-2 (Homo sapiens, UniProt P51788, K394R)", "T3 construct": "gene CLCN2; human ClC-2 mutant expressed in CHO-K1 cells", "T3 sequence (P51788 2-898 K394R)": "T1 sequence (P51788 2-898 K394A) with A393R"}}, "note": "Residue numbers refer to the chain shown, from its start."}
{"smiles": "O=C(O)c1cccnc1Nc1c(Cl)ccc(OCc2ccccc2)c1Cl", "note": "[AK-42, 2-((3-(benzyloxy)−2,6-dichlorophenyl)amino)nicotinic acid]", "values": [{"measurement": "whole-cell patch clamp, 30 nM AK-42", "setting": "ClC-2 [1]", "value": "K394R and K394A showed a slightly lower but not significant percent inhibition of AK-42 than wild-type ClC-2"}, {"measurement": "whole-cell patch clamp, 30 nM AK-42", "setting": "ClC-2 [2]", "value": "the mutation F459A in the hydrophobic pocket shows a higher percent inhibition value than wild-type ClC-2"}, {"measurement": "whole-cell patch clamp, 30 nM AK-42", "setting": "ClC-2 [3]", "value": "K394R and K394A showed a slightly lower but not significant percent inhibition of AK-42 than wild-type ClC-2"}]}
